{"source": "patent US11779546B2", "about": "“Disassembly of cholesterol crystals” (IP SCIENCE LIMITED, priority 2018, dated 2023)", "key": {"[1]": {"assay": "Disassembly of crystallised cholesterol (Sigma) in ethanol solutions of test substance", "assay_type": "physicochemical", "details": "100 mg crystallised cholesterol; for ratio of carotenoid to cholesterol at which complete disaggregation of the crystals was observed: 20 ml ethanol, 20-22° C., gentle stirring for a couple of minutes; for effect on size or number of the cholesterol crystals: 20 ml ethanol solutions with different concentrations, room temperature", "experimental": "(§1) To 100 mg of crystallised cholesterol (Sigma) 20 ml of ethanol solutions with different concentrations of lycopene were added. As a control, 20 ml of the same ethanol was used but without any lycopene. After gentle stirring for a couple of minutes, under the room temperature of about 20-22° C., recording of the results was made.\nas §1, with “lutein” for “lycopene”, “lutein.” for “lycopene.”, “at a” for “under the”\nas §1, with “a number of biologically active hydrophobic substances and oils” for “lycopene”, “additives.” for “lycopene.”, “at a” for “under the”, “[…],” for “20-22° C.,”"}, "[2]": {"assay": "Changes of physical properties of cholesterol crystals formed in presence of lycopene", "assay_type": "physicochemical", "text": "In a range of experiments where ratio of cholesterol to lycopene varied, from 1,000 to at least 10,000,000 molecules of the former to 1 molecule of the latter, noticeable changes in the physical properties of crystals were observed.\nIn all control experiments, cholesterol crystallised into a plate-like crystals, see FIG. 2B and FIG. 2D. Sometimes they could create a thick flat plate of few centimetres across, like the one on the bottom of the glass in the experiment 2, FIG. 2C. However, when lycopene was present in the medium a formation of a new type of crystals was observed.\nUnder the light and confocal microscopy these difference between two types of cholesterol crystals, in size and shape, are more evident (FIGS. 5A-F and 6A-B)."}, "[3]": {"assay": "Prevention of or interference into the formation of cholesterol crystals (evaporation of ethanol cholesterol solution)", "assay_type": "physicochemical", "details": "for effect on rate / formation of cholesterol crystallisation: less than one molecule of lycopene per million molecules of cholesterol", "experimental": "A solution of 198 ml of 1 g of cholesterol (Sigma) in 99% ethanol was divided in two equal parts. In one part 1 ml of ethanol containing […] of the dissolved lycopene was added. This provided ratio of lycopene to cholesterol as 1:10^6. Into the other part, the control, 1 ml of the ethanol itself was added. Then both samples were left in the dark room for evaporation under 20-22° C. Recording of the status of the both samples were made at least on a daily or even shorter intervals."}, "[4]": {"assay": "Disassembly of cholesterol crystals in the arterial wall (pieces of atherosclerotic abdominal aorta incubated 13 days)", "set-up": "species or system human", "details": "1 μg/ml lycopene in ethanol diluted by PBS 10 fold, room temperature", "text": "It was important to confirm whether carotenoids, and lycopene in particular, can affect folding of cholesterol crystals, which are not just synthesized by a manufacturer, but produced naturally, and particularly those, which are developed during pathological process in human. For this purpose, we used pieces of atherosclerotic abdominal aorta, which were obtained during a combined vascular graft and by-pass surgery.\n(§2) This was in terms of their stage of development, with prominently featured cholesterol crystals of similar size, embedded into the atheromatous tissues of the aorta wall. As a control material we collected pieces of the atherosclerotic abdominal aorta containing calcium phosphate crystals.\n(§3) Firstly, an ethanol solution 1 μg/ml of lycopene was prepared. It was then diluted by PBS 10 fold. As a control, a solution was made with the same ratio ethanol to PBS but without lycopene. Then pieces of aorta were incubated, in light protected containers at the room temperature of about […] for 13 days."}, "[5]": {"assay": "Control: atherosclerotic abdominal aorta pieces containing calcium phosphate crystals incubated with lycopene", "set-up": "species or system human", "details": "lycopene-ethanol-PBS, 13 days, room temperature", "experimental": "as §2, §3"}}, "note": "Entries after “also recorded” stand apart in the source; their conditions may differ.", "data": [{"compound": "CC1=C[C@H](O)CC(C)(C)[C@H]1/C=C/C(C)=C/C=C/C(C)=C/C=C/C=C(C)/C=C/C=C(C)/C=C/C1=C(C)C[C@@H](O)CC1(C)C", "note": "[lutein]", "values": [{"measurement": "ratio of carotenoid to cholesterol at which complete disaggregation of the crystals was observed", "setting": "[1]", "value": "1 to 20,000"}]}, {"compound": "CC(C)=CCC/C(C)=C/C=C/C(C)=C/C=C/C(C)=C/C=C/C=C(C)/C=C/C=C(C)/C=C/C=C(\\C)CCC=C(C)C", "note": "[lycopene]", "values": [{"measurement": "ratio of carotenoid to cholesterol at which complete disaggregation of the crystals was observed", "setting": "[1]", "value": "1 to 100,000"}, {"measurement": "incorporation into newly formed cholesterol crystal structures", "setting": "[2]", "value": "able to incorporate into newly formed crystal structures"}, {"measurement": "type (size and shape) of cholesterol crystals formed", "setting": "[2]; cholesterol to lycopene 1,000 to at least 10,000,000 : 1, controls plate-like crystals", "value": "significantly smaller and in a shape of needle- or narrow tube-like crystals; also recorded: needle-like crystals"}, {"measurement": "effect on rate / formation of cholesterol crystallisation", "setting": "[3]", "value": "significantly affect the rate of its crystallisation"}, {"measurement": "effect on rate / formation of cholesterol crystallisation", "setting": "[3]; listed as Lycopene", "value": "prevents or slows down formation of cholesterol crystallisation"}, {"measurement": "day by which crystallisation was completed", "setting": "[3]; lycopene to cholesterol 1:10^6, ethanol evaporation in the dark, 20-22° C., control: 12th day", "value": "≤ 14", "unit": "days"}, {"measurement": "day on which floating cholesterol crystals started to appear", "setting": "[3]; lycopene to cholesterol 1:10^6, ethanol evaporation in the dark, 20-22° C., control: after two days", "value": 6, "unit": "days"}, {"measurement": "size of the remaining crystalloid structures", "setting": "[4]", "value": "reduced by at least two-fold"}, {"measurement": "size of the surrounding cholesterol-rich atheromatous mass of the lesion", "setting": "[4]", "value": "reduced by about two-fold"}, {"measurement": "number of crystalloid structures in the lesion at end of incubation", "setting": "[4]; three structures at start", "value": "only two"}, {"measurement": "effect on size or shape of calcium phosphate crystals", "setting": "[5]", "value": "did not affect size or shape of calcium phosphate crystals"}]}, {"compound": "phosphatidylcholine [reference compound]", "values": [{"measurement": "effect on size or number of the cholesterol crystals", "setting": "[1]", "value": "not able to affect cholesterol crystals"}]}, {"compound": "tocopherol [reference compound]", "values": [{"measurement": "effect on size or number of the cholesterol crystals", "setting": "[1]", "value": "ineffective"}]}]}
